# Assay results as given in publication PMC4775085 (ACS chemical neuroscience, 2015).
# Assays:
# [1] = Liver microsomes stability, human; type: in vitro ADME
# HDAC5 = HDAC5 (Homo sapiens, UniProt Q9UQL6); assay: HDAC5 enzymatic inhibition assay
# [2] = Liver microsomes stability, mouse; type: in vitro ADME
# mutant HSPB1 DRG neurons = assay: Mitochondrial axonal transport in mutant HSPB1 DRG neurons; type: cell-based, mouse; conditions: DRG neurons from transgenic mutant HSPB1 mice, 100 nM overnight
# Aqueous solubility = conditions: PBS, pH 7.4, aqueous buffer
# Caco-2 permeability = type: in vitro ADME; conditions: human, Caco-2, pH 7.4
# [3] = Intravenous and oral plasma pharmacokinetics in male CD1 mice; type: in vivo; conditions: CD1, mouse
# CYP 1A2 = molecular target: T1, CYP 1A2 (Homo sapiens, UniProt P05177); assay: CYP inhibition 1A2
# T1 sequence (P05177 1-516): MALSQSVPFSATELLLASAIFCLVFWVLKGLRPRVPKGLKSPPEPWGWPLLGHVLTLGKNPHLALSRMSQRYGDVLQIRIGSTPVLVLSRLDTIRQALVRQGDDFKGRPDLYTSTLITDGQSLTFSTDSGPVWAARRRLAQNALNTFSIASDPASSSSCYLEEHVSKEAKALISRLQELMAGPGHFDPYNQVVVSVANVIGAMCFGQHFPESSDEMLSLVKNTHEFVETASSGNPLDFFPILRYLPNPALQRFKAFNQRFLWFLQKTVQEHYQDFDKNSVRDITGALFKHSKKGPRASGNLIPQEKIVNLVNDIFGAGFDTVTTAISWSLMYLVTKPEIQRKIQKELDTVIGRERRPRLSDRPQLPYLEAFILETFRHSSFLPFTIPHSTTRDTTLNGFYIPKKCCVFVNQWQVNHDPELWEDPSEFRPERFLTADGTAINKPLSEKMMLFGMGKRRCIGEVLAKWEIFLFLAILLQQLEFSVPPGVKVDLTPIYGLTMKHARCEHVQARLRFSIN
# Plasma stability, human = type: in vitro ADME; conditions: 120 min
# Plasma stability, mouse = type: in vitro ADME; conditions: 120 min
# [4] = Hepatocyte stability, human; type: in vitro ADME; conditions: hepatocytes
# HDAC8 = molecular target: T2, HDAC8 (Homo sapiens, UniProt Q9BY41); assay: HDAC8 enzymatic inhibition assay
# T2 sequence (Q9BY41 1-377): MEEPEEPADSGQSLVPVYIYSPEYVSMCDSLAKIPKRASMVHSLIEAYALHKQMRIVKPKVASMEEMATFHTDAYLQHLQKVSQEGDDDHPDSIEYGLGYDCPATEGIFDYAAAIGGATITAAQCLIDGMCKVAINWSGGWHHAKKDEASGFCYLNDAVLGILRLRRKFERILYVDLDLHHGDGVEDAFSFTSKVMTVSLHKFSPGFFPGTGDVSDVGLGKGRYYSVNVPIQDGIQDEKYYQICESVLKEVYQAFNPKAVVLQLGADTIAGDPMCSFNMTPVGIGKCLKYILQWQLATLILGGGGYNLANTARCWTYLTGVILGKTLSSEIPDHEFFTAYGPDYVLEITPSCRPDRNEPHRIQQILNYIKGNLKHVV
# [5] = Hepatocyte stability, mouse; type: in vitro ADME; conditions: hepatocytes
# CYP 3A4-T = CYP 3A4-T (Homo sapiens, UniProt P08684); assay: CYP inhibition 3A4-T; type: in vitro ADME
# Chain of CYP 3A4-T (P08684 whole entry): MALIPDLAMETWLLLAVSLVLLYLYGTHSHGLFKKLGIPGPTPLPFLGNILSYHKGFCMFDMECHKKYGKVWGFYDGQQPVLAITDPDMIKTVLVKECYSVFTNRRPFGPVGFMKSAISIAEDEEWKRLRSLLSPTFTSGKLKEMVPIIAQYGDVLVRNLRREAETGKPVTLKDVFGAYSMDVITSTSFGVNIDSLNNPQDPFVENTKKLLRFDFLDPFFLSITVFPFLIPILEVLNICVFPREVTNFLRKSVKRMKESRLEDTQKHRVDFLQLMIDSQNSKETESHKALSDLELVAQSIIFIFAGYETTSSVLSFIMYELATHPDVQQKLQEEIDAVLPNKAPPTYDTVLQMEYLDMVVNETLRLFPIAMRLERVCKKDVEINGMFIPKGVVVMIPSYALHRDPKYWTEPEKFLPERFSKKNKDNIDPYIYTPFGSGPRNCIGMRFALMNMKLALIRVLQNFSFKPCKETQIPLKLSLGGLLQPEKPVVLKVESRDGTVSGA
# HDAC4 = HDAC4 (Homo sapiens, UniProt P56524); assay: HDAC4 enzymatic inhibition assay
# Chain of HDAC4 (P56524 whole entry): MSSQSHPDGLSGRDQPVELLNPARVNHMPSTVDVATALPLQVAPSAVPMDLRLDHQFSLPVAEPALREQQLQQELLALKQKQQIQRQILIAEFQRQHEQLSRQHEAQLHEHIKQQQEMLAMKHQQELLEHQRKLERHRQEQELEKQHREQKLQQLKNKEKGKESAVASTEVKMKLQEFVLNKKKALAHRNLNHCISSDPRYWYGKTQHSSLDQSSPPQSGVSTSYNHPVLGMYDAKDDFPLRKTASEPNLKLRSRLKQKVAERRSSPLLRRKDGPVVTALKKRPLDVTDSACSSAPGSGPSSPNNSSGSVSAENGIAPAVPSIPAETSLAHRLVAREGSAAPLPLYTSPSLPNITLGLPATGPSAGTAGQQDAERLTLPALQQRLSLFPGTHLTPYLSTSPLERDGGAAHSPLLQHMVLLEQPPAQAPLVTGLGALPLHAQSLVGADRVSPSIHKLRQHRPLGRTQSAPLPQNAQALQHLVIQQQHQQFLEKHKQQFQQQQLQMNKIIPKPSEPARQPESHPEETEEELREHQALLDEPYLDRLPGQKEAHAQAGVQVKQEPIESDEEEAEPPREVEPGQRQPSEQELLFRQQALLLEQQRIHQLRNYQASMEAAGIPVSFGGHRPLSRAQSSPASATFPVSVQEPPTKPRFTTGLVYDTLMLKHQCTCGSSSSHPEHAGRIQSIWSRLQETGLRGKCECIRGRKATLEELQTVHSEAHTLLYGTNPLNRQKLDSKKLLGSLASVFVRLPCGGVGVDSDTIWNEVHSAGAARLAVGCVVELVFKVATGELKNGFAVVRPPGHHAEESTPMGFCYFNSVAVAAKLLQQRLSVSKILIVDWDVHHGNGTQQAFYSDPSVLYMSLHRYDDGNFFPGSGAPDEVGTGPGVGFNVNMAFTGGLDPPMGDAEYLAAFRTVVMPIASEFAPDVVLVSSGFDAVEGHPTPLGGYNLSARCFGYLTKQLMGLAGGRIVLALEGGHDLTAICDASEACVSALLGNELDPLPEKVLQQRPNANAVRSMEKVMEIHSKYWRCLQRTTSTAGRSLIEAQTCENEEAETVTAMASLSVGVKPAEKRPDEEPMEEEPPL
# CYP 2C9 = CYP 2C9 (Homo sapiens, UniProt P11712); assay: CYP inhibition 2C9
# Chain of CYP 2C9 (P11712 whole entry): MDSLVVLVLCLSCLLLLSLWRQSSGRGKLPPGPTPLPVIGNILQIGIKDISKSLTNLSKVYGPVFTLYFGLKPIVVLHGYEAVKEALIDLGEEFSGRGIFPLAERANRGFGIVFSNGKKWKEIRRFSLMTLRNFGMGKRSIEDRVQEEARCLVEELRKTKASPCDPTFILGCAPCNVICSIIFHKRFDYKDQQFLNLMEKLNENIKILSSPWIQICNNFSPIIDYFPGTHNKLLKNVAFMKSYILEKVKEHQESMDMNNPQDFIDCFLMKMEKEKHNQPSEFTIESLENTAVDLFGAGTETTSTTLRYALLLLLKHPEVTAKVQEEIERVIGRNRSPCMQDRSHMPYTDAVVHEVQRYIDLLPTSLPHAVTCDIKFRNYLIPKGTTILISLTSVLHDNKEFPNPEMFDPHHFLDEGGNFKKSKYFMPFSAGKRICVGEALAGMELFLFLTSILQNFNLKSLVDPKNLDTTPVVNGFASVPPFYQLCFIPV
# CYP 2C19 = CYP 2C19 (Homo sapiens, UniProt P33261); assay: CYP inhibition 2C19
# Chain of CYP 2C19 (P33261 whole entry): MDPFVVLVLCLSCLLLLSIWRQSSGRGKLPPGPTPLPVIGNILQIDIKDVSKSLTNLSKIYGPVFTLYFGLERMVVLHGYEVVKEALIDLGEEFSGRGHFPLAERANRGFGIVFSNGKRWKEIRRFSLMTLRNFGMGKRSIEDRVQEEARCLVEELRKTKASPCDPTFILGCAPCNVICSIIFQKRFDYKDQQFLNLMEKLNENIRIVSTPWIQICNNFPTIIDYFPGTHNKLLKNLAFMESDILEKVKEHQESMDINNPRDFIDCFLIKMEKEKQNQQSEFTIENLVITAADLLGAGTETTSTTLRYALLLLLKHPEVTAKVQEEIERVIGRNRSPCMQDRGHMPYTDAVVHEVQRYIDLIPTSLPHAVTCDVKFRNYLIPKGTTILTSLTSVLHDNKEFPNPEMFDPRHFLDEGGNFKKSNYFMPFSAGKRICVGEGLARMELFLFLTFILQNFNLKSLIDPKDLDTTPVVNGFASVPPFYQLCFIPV
# CYP 3A4-M = CYP 3A4-M (Homo sapiens, UniProt P08684); assay: CYP inhibition 3A4-M; type: in vitro ADME
# Chain of CYP 3A4-M (P08684 whole entry): as the sequence (P08684 whole entry) above
# CYP 2D6 = CYP 2D6 (Homo sapiens, UniProt P10635); assay: CYP inhibition 2D6; type: in vitro ADME
# Chain of CYP 2D6 (P10635 whole entry): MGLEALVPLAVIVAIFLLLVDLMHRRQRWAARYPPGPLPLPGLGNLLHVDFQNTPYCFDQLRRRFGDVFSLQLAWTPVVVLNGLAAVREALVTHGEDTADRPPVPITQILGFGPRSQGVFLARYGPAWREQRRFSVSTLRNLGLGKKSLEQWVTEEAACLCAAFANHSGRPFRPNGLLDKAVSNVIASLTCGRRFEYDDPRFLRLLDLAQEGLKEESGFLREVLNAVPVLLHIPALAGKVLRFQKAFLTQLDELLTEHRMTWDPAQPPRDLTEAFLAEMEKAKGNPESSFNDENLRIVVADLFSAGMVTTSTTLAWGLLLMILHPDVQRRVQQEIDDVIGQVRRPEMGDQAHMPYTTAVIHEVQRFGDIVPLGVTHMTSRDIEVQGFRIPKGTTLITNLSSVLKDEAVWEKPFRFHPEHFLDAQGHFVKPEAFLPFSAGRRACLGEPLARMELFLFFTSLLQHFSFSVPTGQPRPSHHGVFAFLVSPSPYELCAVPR
# Chain of HDAC5 (Q9UQL6 whole entry): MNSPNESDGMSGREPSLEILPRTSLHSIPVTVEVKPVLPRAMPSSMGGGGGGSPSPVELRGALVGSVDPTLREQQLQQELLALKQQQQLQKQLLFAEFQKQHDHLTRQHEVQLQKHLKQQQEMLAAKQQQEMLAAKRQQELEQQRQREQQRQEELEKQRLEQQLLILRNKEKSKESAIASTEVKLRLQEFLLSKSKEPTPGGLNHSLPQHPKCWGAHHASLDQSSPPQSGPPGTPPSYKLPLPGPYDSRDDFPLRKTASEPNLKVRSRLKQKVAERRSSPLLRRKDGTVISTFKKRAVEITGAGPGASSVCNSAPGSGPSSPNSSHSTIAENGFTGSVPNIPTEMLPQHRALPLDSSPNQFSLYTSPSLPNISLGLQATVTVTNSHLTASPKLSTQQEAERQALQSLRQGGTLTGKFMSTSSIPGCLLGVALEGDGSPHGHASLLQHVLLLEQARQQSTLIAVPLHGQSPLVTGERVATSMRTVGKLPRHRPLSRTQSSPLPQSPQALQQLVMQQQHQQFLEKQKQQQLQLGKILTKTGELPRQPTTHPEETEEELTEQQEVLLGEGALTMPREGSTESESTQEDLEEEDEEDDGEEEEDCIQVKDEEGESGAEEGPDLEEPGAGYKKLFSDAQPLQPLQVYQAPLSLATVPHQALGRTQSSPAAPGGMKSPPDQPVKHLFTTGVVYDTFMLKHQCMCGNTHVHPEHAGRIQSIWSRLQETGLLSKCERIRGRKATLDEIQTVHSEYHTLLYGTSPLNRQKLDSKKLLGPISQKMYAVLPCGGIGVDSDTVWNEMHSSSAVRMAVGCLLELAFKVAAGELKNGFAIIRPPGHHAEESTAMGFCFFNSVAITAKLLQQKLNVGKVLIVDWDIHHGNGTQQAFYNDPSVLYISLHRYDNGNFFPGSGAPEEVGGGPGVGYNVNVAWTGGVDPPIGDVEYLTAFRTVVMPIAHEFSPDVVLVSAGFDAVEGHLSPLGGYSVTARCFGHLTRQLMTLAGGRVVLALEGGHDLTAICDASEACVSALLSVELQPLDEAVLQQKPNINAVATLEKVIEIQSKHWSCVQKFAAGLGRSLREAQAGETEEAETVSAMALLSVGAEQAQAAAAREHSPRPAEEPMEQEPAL
compound,measurement,setting,value
"Cc1nc2ccccc2n1Cc1ccc(C(=O)NO)cc1F [23d, 3-Fluoro-N-hydroxy-4-[(2-methyl-1-benzimidazolyl)methyl]-benzamide]",half-life,[1],32.4 h
same,IC50,HDAC5,0.182 µM
same,half-life,[2],4.75 h
same,mitochondrial axonal transport (number of moving mitochondria per 100 μm of neurite),mutant HSPB1 DRG neurons,able to restore the movement of mitochondria
same,solubility,Aqueous solubility,302 µM
same,Papp A→B,Caco-2 permeability,3.89 ×10⁻⁶ cm/s
same,Papp B→A,Caco-2 permeability,13.2 ×10⁻⁶ cm/s
same,AUC(0-inf),"[3]; iv, 3 mg/kg",1480 ng·h/mL
same,Vd,"[3]; iv, 3 mg/kg",0.382 L/kg
same,clearance,"[3]; iv, 3 mg/kg",34 mL/min/kg
same,half-life,"[3]; iv, 3 mg/kg",0.851 h
same,AUC(0-inf),"[3]; po, 30 mg/kg",3100 ± 84 ng·h/mL
same,Cmax,"[3]; po, 30 mg/kg",4370 ± 470 ng/mL
same,Tmax,"[3]; po, 30 mg/kg",0.25 h
same,IC50,CYP 1A2,> 50 µM
same,plasma stability remaining percentage,"Plasma stability, human",93.4%
same,plasma stability remaining percentage,"Plasma stability, mouse",87.9%
same,half-life,[4],24.8 h
same,IC50,HDAC8,0.176 µM
same,half-life,[5],0.667 h
same,IC50,CYP 3A4-T,36 µM
same,IC50,HDAC4,0.47 µM
same,IC50,CYP 2C9,> 50 µM
same,IC50,CYP 2C19,> 50 µM
same,IC50,CYP 3A4-M,> 50 µM
same,IC50,CYP 2D6,> 50 µM
